The values that follow come from ChEMBL document CHEMBL1136862, “Development of thioquinazolinones, allosteric Chk1 kinase inhibitors” (Bioorg Med Chem Lett, 2009).

SMILES strings stand for the structures. pIC50: −log10 of the molar value.

For orientation: inhibition means the percentage by which the read-out fell short of the control. One may read the pIC50 as the IC50 on a negative log10 scale, so that one unit is a factor of ten.

In the first test the target is T1, Serine/threonine-protein kinase Chk1 (Homo sapiens) (UniProt O14757).
T1 sequence (whole entry): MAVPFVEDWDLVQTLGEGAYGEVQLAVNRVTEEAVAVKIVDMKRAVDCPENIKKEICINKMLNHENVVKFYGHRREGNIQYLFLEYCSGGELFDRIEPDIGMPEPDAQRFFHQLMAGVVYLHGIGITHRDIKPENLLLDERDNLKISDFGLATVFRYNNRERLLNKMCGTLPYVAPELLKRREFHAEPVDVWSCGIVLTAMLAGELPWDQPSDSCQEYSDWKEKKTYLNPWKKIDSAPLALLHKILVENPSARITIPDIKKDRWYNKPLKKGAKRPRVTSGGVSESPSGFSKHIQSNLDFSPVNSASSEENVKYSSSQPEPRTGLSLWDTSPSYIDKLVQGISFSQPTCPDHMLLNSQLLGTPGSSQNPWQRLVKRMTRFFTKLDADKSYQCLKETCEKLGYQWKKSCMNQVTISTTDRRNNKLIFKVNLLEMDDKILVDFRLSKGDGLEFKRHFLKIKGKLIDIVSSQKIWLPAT
The test can be described thus: Inhibition of C-terminal 6-His tagged human Chk1 at 100 uM by HTRF assay in presence of 0.1 mM ATP. In general terms: In TR-FRET formats the signal depends on donor and acceptor labels being close together.
As to `CCCCC(Sc1nc2ccccc2c(=O)n1-c1ccnc(Cl)c1)C(=O)N1CCC(C(N)=O)CC1` (stereo not drawn), the inhibition is 20%.
On the same count and under the same terms, the value for `CCCCC(Sc1nc2ccccc2c(=O)n1C)C(=O)N1CCC(C(N)=O)CC1` (stereo not drawn) was 48%; that for `CCCCC(Sc1nc2ccccc2c(=O)n1-c1cccnc1)C(=O)N1CCC(C(N)=O)CC1` (stereo not drawn) was 35%; that for `CCCCC(Sc1nc2ccccc2c(=O)n1C1CCCCC1)C(=O)N1CCC(C(N)=O)CC1` (stereo not drawn) was 17%.
On to `CCCCC(Sc1nc2ccccc2c(=O)n1Cc1cccnc1)C(=O)N1CCC(C(N)=O)CC1` (stereo not drawn), for which the inhibition came to 26%.
Same read-out and setting: the value for `CCCCC(Sc1nc2ccccc2c(=O)n1-c1ccccc1)C(=O)N(CC)CC` (stereo not drawn) was 62%; that for `CCCCC(Sc1nc2ccccc2c(=O)n1C(C)C)C(=O)N1CCC(C(N)=O)CC1` (stereo not drawn) was 20%.
As to `CCCCC(Sc1nc2ccccc2c(=O)n1-c1ccccc1)C(=O)NC1CC2CCC1C2` (stereo not drawn), the inhibition is 3%.
Same read-out and setting: the result for `CCCCC(Sc1nc2ccc(C)cc2c(=O)n1-c1cccc(Cl)c1)C(=O)N1CCC(C(N)=O)CC1` (stereo not drawn) reads 30%.

In the next test the target is T2, Serine/threonine-protein kinase Chk1 (Homo sapiens, UniProt O14757).
T2 sequence (O14757 whole entry): T1 sequence (whole entry)
As to the kind of experiment: Inhibition of C-terminal 6-His tagged human Chk1 by HTRF assay in presence of 0.1 mM ATP.
Consider `CC(C)C(Sc1nc2ccccc2c(=O)n1-c1cccc(Cl)c1)C(=O)N1CCC(C(N)=O)CC1` (stereo not drawn), for which the pIC50 is less than 4.00.
Same read-out and setting: the result for `CCCCC(Sc1nc2ccccc2c(=O)n1-c1ccccc1)C(=O)N1CCC(c2ccccc2)(c2ccccc2)CC1` (stereo not drawn) reads 5.35; that for `CCCCC(Sc1nc2c(O)cccc2c(=O)n1-c1cccc(Cl)c1)C(=O)N1CCC(C(N)=O)CC1` (stereo not drawn), 4.70.
Still for that read-out and setting: the result for `CCCCC(Sc1nc2c(OC)cccc2c(=O)n1-c1cccc(Cl)c1)C(=O)N1CCC(C(N)=O)CC1` (stereo not drawn) reads 4.68; that for `CCCCC(Sc1nc2ccccc2c(=O)n1-c1ccccc1Cl)C(=O)N1CCC(C(N)=O)CC1` (stereo not drawn), 4.39.
The same measure, in the same setting: the value for `CCCCC(Sc1nc2c(C)cccc2c(=O)n1-c1cccc(Cl)c1)C(=O)N1CCC(C(N)=O)CC1` (stereo not drawn) was 4.77; that for `NC(=O)C1CCN(C(=O)C(Sc2nc3ccccc3c(=O)n2-c2cccc(Cl)c2)c2ccccc2)CC1` (stereo not drawn) was 4.68.
With `CCCCC(Sc1nc2ccccc2c(=O)n1-c1ccccc1)C(=O)N1CCC(C(N)=O)CC1` (stereo not drawn), the negative logarithm of the IC50 (pIC50) is 4.77.
With `CCCCC(Sc1nc2ccccc2c(=O)n1-c1ccccc1)C(=O)NC(C)(C)C` (stereo not drawn), the pIC50 was less than 4.00.
The same measure, in the same setting: the value for `CCCCC(Sc1nc2ccccc2c(=O)n1-c1ccccc1)C(=O)NC12CC3CC(CC(C3)C1)C2` (stereo not drawn) was less than 4.00.
The same measure, in the same setting: the value for `CC(C)CC(Sc1nc2ccccc2c(=O)n1-c1cccc(Cl)c1)C(=O)N1CCC(C(N)=O)CC1` (stereo not drawn) was 5.55.
On the same count and under the same terms, the result for `CCCCC(Sc1nc2cc(C)ccc2c(=O)n1-c1cccc(Cl)c1)C(=O)N1CCC(C(N)=O)CC1` (stereo not drawn) reads 4.55; that for `CCCCC(Sc1nc2cccc(C)c2c(=O)n1-c1cccc(Cl)c1)C(=O)N1CCC(C(N)=O)CC1` (stereo not drawn), less than 4.00.
Consider `CCCCC(Sc1nc2ccccc2c(=O)n1-c1ccc(Cl)cc1)C(=O)N1CCC(C(N)=O)CC1` (stereo not drawn), for which the pIC50 was less than 4.00.
Same read-out and setting: the result for `CCCCC(Sc1nc2ccccc2c(=O)n1-c1ccccc1)C(=O)N1CCCC2(CCCNC2)C1` (stereo not drawn) reads 5.42; that for `CCCCC(Sc1nc2ccccc2c(=O)n1-c1ccccc1)C(=O)N1CCS(=O)(=O)CC1` (stereo not drawn), 5.22; that for `CCCCC(Sc1nc2ccccc2c(=O)n1-c1ccccc1)C(=O)NC1CCCCC1` (stereo not drawn), less than 4.00.
Still for that read-out and setting: the result for `CCCCC(Sc1nc2ccccc2c(=O)n1-c1ccccc1)C(=O)N1CCN(c2ccccc2)CC1` (stereo not drawn) reads 5.48.

The next test deals with T2, Serine/threonine-protein kinase Chk1. As to the kind of experiment: Inhibition of C-terminal 6-His tagged human Chk1 by HTRF assay in presence of 2.0 mM ATP.
As for `CCCCC(Sc1nc2ccccc2c(=O)n1-c1ccccc1)C(=O)N1CCC(C(N)=O)CC1` (stereo not drawn), the pIC50 was 4.62.
